Data published in patent US11000601B2, “Conjugated biological molecules, pharmaceutical compositions and methods” (OBI Pharma, Inc., priority 2016, dated 2021).
Several values for one entry are separate records, joined by “and”; a condition that tells them apart may be missing. Equal entries are not always repeated. Marks after values point to notes of the source that are not given here. Square brackets hold non-standard residues; d marks the D form. Peptide text beside a SMILES is read from it. * marks the point of attachment. Dolaproine = CO[C@@H]([C@@H]1CCCN1)[C@@H](C)C(=O)O; Dil = CC[C@H](C)[C@H](NC)[C@@H](CC(=O)O)OC; X1 = C[C@@H](N*)[C@@H](O)c1ccccc1; NMeV = CN[C@H](C(=O)O)C(C)C

Tests used:
[1] = Body weight, mortality and signs of overt toxicity in NCI-H526 implanted female nu/nu mice; format: in vivo, mouse; conditions: for Body Weight (g), Mean: group mean; for Body Weight (g), individual animal No. 1-8: single mice; for Body Weight / Body Weight (g): individual mice, 0.191 mg/kg
Procedure: (§1) In a xenograft tumor model of human small cell lung cancer, viable NCI-H526 stage E carcinoma; variant small cell lung cancer cells (ATCC CRL-5811), were subcutaneously (SC) implanted (1×10^6 cells with matrigel (1:0.8) in 0.2 mL/mouse) into the right flank of female nu/nu mice. Tumor implanted mice were divided into five treatment groups, each group containing eight animals, and test agent administrations were initiated one day after cell implantation (denoted as Day 1).
(§2) Female nu/nu nude, aged 6-7 weeks, were obtained from BioLasco Taiwan (under Charles River Laboratories Licensee) and used. The animals were housed in individually ventilated cages (IVC, 36 Mini Isolator system). The allocation for 5 animals was 27×20×14 in cm. All animals were maintained in a hygienic environment under controlled temperature (20-24° C.) and humidity (30-70%) with 12-hour light/dark cycle. Free access to standard lab diet [MFG (Oriental Yeast Co., Ltd., Japan)] and autoclaved tap water were granted. All aspects of this work including housing, experimentation, and animal disposal were performed in general accordance with the “Guide for the Care and Use of Laboratory Animals: Eighth Edition” (National Academies Press, Washington, D.C., 2011) in our AAALAC-accredited laboratory animal facility. In addition, the animal care and use protocol was reviewed and approved by the IACUC at Eurofins Panlabs Taiwan, Ltd.
(§3) The tumor volumes, body weights, mortality, and signs of overt toxicity were monitored and recorded twice weekly for 45 days. Tumor growth inhibition was calculated as T/C (treatment/control)×100%. A T/C value≤42% compared to that of the vehicle control group was considered significant anti-tumor activity. Two-way ANOVA followed by Bonferroni test was used to ascertain the statistically significant significance of groups compared to respective vehicle control (*p<0.05).

[2] = tested on: NCI-H526 (ATCC CRL-5811) variant small cell lung cancer cells; assay: Xenograft tumor model of human small cell lung cancer NCI-H526 in female nu/nu mice: tumor volume, T/C, TGI; format: in vivo; conditions: for Tumor Volume (mm^3), individual animal: animals No. 1-8; for Tumor Volume (mm^3), individual animal / Tumor Volume (mm^3), Mean: once weekly x 4 (10 mg/kg IV; MMAE 0.191 mg/kg IP); for Tumor Volume (mm^3), Mean: group mean; for % T/C: treatment/control x 100%, <=42% considered significant; for % TGI: vs vehicle control
Procedure: as §1
The NCI-H526 tumor cell line was purchased from American Type Culture Collection (ATCC CRL-5811, variant small cell lung carcinoma) and cultured in Eurofins Panlabs Taiwan, Ltd. The cells were cultured in RPMI-1640 medium containing 10% fetal bovine serum (FBS) at 37° C. in 5% CO2 incubator and implanted subcutaneously in the right flank of each mouse.
as §2, §3

[3] = Day 1, NCI-H526 xenograft, female nu/nu mice, OBI-999/OBI-888 10 mg/kg IV, MMAE 0.191 mg/kg IP, once weekly x 4
[4] = Day 4, NCI-H526 xenograft, female nu/nu mice, OBI-999/OBI-888 10 mg/kg IV, MMAE 0.191 mg/kg IP, once weekly x 4
[5] = Day 15, NCI-H526 xenograft, female nu/nu mice, OBI-999/OBI-888 10 mg/kg IV, MMAE 0.191 mg/kg IP, once weekly x 4
[6] = Day 18, NCI-H526 xenograft, female nu/nu mice, OBI-999/OBI-888 10 mg/kg IV, MMAE 0.191 mg/kg IP, once weekly x 4
[7] = Day 31, NCI-H526 xenograft, female nu/nu mice, OBI-999/OBI-888 10 mg/kg IV, MMAE 0.191 mg/kg IP, once weekly x 4
[8] = Day 39, NCI-H526 xenograft, female nu/nu mice, OBI-999/OBI-888 10 mg/kg IV, MMAE 0.191 mg/kg IP, once weekly x 4
[9] = Gr. 8, 0.191 mg/kg × 4 IP once weekly, Day 57
[10] = Gr. 8, 0.191 mg/kg × 4 IP once weekly, Day 60
[11] = Gr. 8, 0.191 mg/kg × 4 IP once weekly, Day 64
[12] = Gr. 8, 0.191 mg/kg × 4 IP once weekly, Day 67
[13] = Gr. 8, 0.191 mg/kg × 4 IP once weekly, Day 70
[14] = Gr. 8, 0.191 mg/kg × 4 IP once weekly, Day 74
[15] = Gr. 8, 0.191 mg/kg × 4 IP once weekly, Day 78
[16] = Gr. 8, 0.191 mg/kg × 4 IP once weekly, Day 81
[17] = Gr. 8, 0.191 mg/kg × 4 IP once weekly, Day 85

**Q.** What does the source list for `CC[C@H](C)[C@@H]([C@@H](CC(=O)N1CCC[C@H]1[C@H](OC)[C@@H](C)C(=O)N[C@H](C)[C@@H](O)c1ccccc1)OC)N(C)C(=O)[C@@H](NC(=O)[C@@H](NC)C(C)C)C(C)C` [MMAE, monomethyl auristatin E] (H-[NMeV]V[Dil][Dolaproine]-X1)?
**A.** Body Weight (g), Mean [1, 3]: 23.9 g; Body Weight (g), individual animal No. 1-8 [1, 3]: 24 g (3×) and 25 g and 26 g and 23 g (2×) and 22 g; Body Weight (g), Mean [1, 4]: 23.6 g; Body Weight (g), individual animal No. 1-8 [1, 4]: 22 g and 25 g and 27 g and 21 g and 23 g (2×) and 24 g (2×); Body Weight (g), individual animal No. 1-8 ([1]; Day 8, NCI-H526 xenograft, female nu/nu mice, OBI-999/OBI-888 10 mg/kg IV, MMAE 0.191 mg/kg IP, once weekly x 4): 24 g (2×) and 26 g and 28 g and 21 g and 25 g (2×) and 23 g; Body Weight (g), individual animal No. 1-8 ([1]; Day 11, NCI-H526 xenograft, female nu/nu mice, OBI-999/OBI-888 10 mg/kg IV, MMAE 0.191 mg/kg IP, once weekly x 4): 24 g (3×) and 28 g (2×) and 23 g (2×) and 25 g; Body Weight (g), Mean [1, 5]: 25.4 g; Body Weight (g), individual animal No. 1-8 [1, 5]: 25 g (2×) and 28 g (2×) and 24 g (2×) and 23 g and 26 g; Body Weight (g), Mean [1, 6]: 25.4 g; Body Weight (g), individual animal No. 1-8 [1, 6]: 25 g (3×) and 28 g (2×) and 24 g (3×); Body Weight (g), individual animal No. 1-8 ([1]; Day 22, NCI-H526 xenograft, female nu/nu mice, OBI-999/OBI-888 10 mg/kg IV, MMAE 0.191 mg/kg IP, once weekly x 4): 24 g (2×) and 28 g (2×) and 25 g (4×); Body Weight (g), individual animal No. 1-8 ([1]; Day 25, NCI-H526 xenograft, female nu/nu mice, OBI-999/OBI-888 10 mg/kg IV, MMAE 0.191 mg/kg IP, once weekly x 4): 26 g (3×) and 30 g and 29 g and 25 g (3×); Body Weight (g), individual animal No. 1-8 ([1]; Day 29, NCI-H526 xenograft, female nu/nu mice, OBI-999/OBI-888 10 mg/kg IV, MMAE 0.191 mg/kg IP, once weekly x 4): 25 g and 32 g and 31 g and 26 g (2×) and 27 g (3×); Body Weight (g), Mean [1, 7]: 27.8 g; Body Weight (g), individual animal No. 1-8 [1, 7]: 25 g and 32 g (2×) and 26 g (2×) and 27 g (3×); Body Weight (g), individual animal No. 1-8 ([1]; Day 36, NCI-H526 xenograft, female nu/nu mice, OBI-999/OBI-888 10 mg/kg IV, MMAE 0.191 mg/kg IP, once weekly x 4): 26 g (2×) and 33 g (2×) and 28 g and 27 g and 29 g (2×); Body Weight (g), Mean [1, 8]: 30.3 g; Body Weight (g), individual animal No. 1-8 [1, 8]: 27 g (3×) and 38 g and 34 g and 30 g (2×) and 29 g; Body Weight [1, 9]: 27 g (4×) and 24 g and 26 g; Body Weight (g) [1, 9]: died; Body Weight [1, 10]: 27 g (2×) and 25 g and 28 g (2×) and 26 g; Body Weight (g) [1, 10]: died; Body Weight (g), Mean [1, 11]: 26.7 g; Body Weight [1, 11]: 27 g (4×) and 24 g and 28 g; Body Weight (g) [1, 11]: died; Body Weight [1, 12]: 27 g (2×) and 25 g and 28 g (3×); Body Weight (g) [1, 12]: died; Body Weight [1, 13]: 26 g (2×) and 25 g and 27 g (3×); Body Weight (g) [1, 13]: died; Body Weight [1, 14]: 27 g and 24 g (2×) and 28 g (3×); Body Weight (g) [1, 14]: died; Body Weight [1, 15]: 28 g (4×) and 25 g (2×); Body Weight (g) [1, 15]: died; Body Weight [1, 16]: 28 g (3×) and 25 g and 27 g and 24 g; Body Weight (g) [1, 16]: died; Body Weight [1, 17]: 27 g and 25 g and 28 g (2×) and 29 g and 23 g; Body Weight (g) [1, 17]: died; Body Weight (g), Mean ([1]; Gr. 8, 0.191 mg/kg × 4 IP once weekly, Day 100): 27.9 g; maximum percent TGI ([2]; 0.191 mg/kg IP weekly, Day 18): 55%; anti-tumor activity (in words) ([2]; 0.191 mg/kg IP weekly, over the course of the study): moderate anti-tumor activity; Tumor Volume (mm^3), individual animal ([2]; Day 1): 75 mm^3 and 108 mm^3 and 81 mm^3 and 83 mm^3 and 99 mm^3 and 60 mm^3 and 68 mm^3 and 91 mm^3; Tumor Volume (mm^3), Mean ([2]; Day 1): 83 mm^3; % T/C ([2]; Day 1): 108%; Tumor Volume (mm^3), individual animal ([2]; Day 4): 80 mm^3 (2×) and 127 mm^3 and 101 mm^3 and 88 mm^3 and 115 mm^3 and 85 mm^3 and 108 mm^3; Tumor Volume (mm^3), Mean ([2]; Day 4): 98 mm^3; % T/C ([2]; Day 4): 120%; % TGI ([2]; Day 4): −20%; Tumor Volume (mm^3), individual animal ([2]; Day 8): 94 mm^3 (2×) and 74 mm^3 (2×) and 83 mm^3 and 70 mm^3 and 82 mm^3 and 121 mm^3; Tumor Volume (mm^3), Mean ([2]; Day 8): 87 mm^3; % T/C ([2]; Day 8): 97%; % TGI ([2]; Day 8): 3%; Tumor Volume (mm^3), individual animal ([2]; Day 11): 74 mm^3 and 86 mm^3 and 89 mm^3 and 104 mm^3 and 121 mm^3 and 67 mm^3 and 77 mm^3 and 79 mm^3; Tumor Volume (mm^3), Mean ([2]; Day 11): 87 mm^3; % T/C ([2]; Day 11): 68%; % TGI ([2]; Day 11): 32%; Tumor Volume (mm^3), individual animal ([2]; Day 15): 82 mm^3 and 133 mm^3 and 137 mm^3 and 101 mm^3 and 144 mm^3 and 89 mm^3 and 172 mm^3 and 123 mm^3; Tumor Volume (mm^3), Mean ([2]; Day 15): 123 mm^3; % T/C ([2]; Day 15): 71%; % TGI ([2]; Day 15): 29%; Tumor Volume (mm^3), individual animal ([2]; Day 18): 80 mm^3 and 199 mm^3 and 246 mm^3 and 169 mm^3 and 187 mm^3 and 101 mm^3 and 281 mm^3 and 202 mm^3; Tumor Volume (mm^3), Mean ([2]; Day 18): 183 mm^3; % T/C ([2]; Day 18): 45%; % TGI ([2]; Day 18): 55%; Tumor Volume (mm^3), individual animal ([2]; Day 22): 74 mm^3 and 618 mm^3 and 530 mm^3 and 337 mm^3 and 317 mm^3 and 152 mm^3 and 621 mm^3 and 401 mm^3; Tumor Volume (mm^3), Mean ([2]; Day 22): 381 mm^3; % T/C ([2]; Day 22): 52%; % TGI ([2]; Day 22): 48%; Tumor Volume (mm^3), individual animal ([2]; Day 25): 70 mm^3 and 1163 mm^3 and 1095 mm^3 and 483 mm^3 and 525 mm^3 and 249 mm^3 and 1078 mm^3 and 535 mm^3; Tumor Volume (mm^3), Mean ([2]; Day 25): 650* mm^3; % T/C ([2]; Day 25): 58%; % TGI ([2]; Day 25): 42%; Tumor Volume (mm^3), individual animal ([2]; Day 29): 90 mm^3 and 1756 mm^3 and 1410 mm^3 and 853 mm^3 and 522 mm^3 and 431 mm^3 and 1313 mm^3 and 845 mm^3; Tumor Volume (mm^3), Mean ([2]; Day 29): 903* mm^3; % T/C ([2]; Day 29): 48%; % TGI ([2]; Day 29): 52%; Tumor Volume (mm^3), individual animal ([2]; Day 31): 173 mm^3 and 1901 mm^3 and 1682 mm^3 and 1172 mm^3 and 657 mm^3 and 550 mm^3 and 1595 mm^3 and 1044 mm^3; Tumor Volume (mm^3), Mean ([2]; Day 31): 1097* mm^3; % T/C ([2]; Day 31): 48%; % TGI ([2]; Day 31): 52%; Tumor Volume (mm^3), individual animal ([2]; Day 36): 126 mm^3 and 3047 mm^3 and 2480 mm^3 and 2090 mm^3 and 759 mm^3 and 1032 mm^3 and 2538 mm^3 and 1318 mm^3; Tumor Volume (mm^3), Mean ([2]; Day 36): 1674 mm^3; Tumor Volume (mm^3), individual animal ([2]; Day 39): 56 mm^3 and 4380 mm^3 and 2713 mm^3 and 2836 mm^3 and 841 mm^3 and 1304 mm^3 and 3040 mm^3 and 1339 mm^3; Tumor Volume (mm^3), Mean ([2]; Day 39): 2064 mm^3
